Values joined by “and” are separate entries in the source; they are usually repeats but may differ in a detail not shown here. Equal values may be shown once.
Tested on: 485368-065-R4-J2-PDC spheroids with HUVEC/MSC, viability
Assay: Anticancer human tumor 485368-065-R4-J2-PDC patient-derived pancreatic carcinoma cell line growth inhibition [CLK]
Settings: for viability, T/C: stronger effect = lower value
Outline: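 Multi-cell-type spheroids combined patient-derived tumor cells with HUVEC endothelial cells and human mesenchymal stem cells. Paired agents were dosed in half-log steps down from about clinical Cmax, or from 10 microM where Cmax was unknown.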

[1] = curve of first compound, second compound 0.0316 µM
[2] = curve of first compound, second compound 0.1 µM
[3] = curve of first compound, second compound 0.316 µM
[4] = curve of first compound, second compound 1 µM
[5] = curve of first compound, second compound 3.16 µM
[6] = curve of first compound, second compound 10 µM
[7] = second compound 0.0316 µM, first compound 0.0316 µM
[8] = second compound 0.0316 µM, first compound 0.1 µM
[9] = second compound 0.0316 µM, first compound 0.316 µM
[10] = second compound 0.0316 µM, first compound 1 µM
[11] = second compound 0.1 µM, first compound 0.0316 µM
[12] = second compound 0.1 µM, first compound 0.1 µM
[13] = second compound 0.1 µM, first compound 0.316 µM
[14] = second compound 0.1 µM, first compound 1 µM
[15] = second compound 0.316 µM, first compound 0.0316 µM
[16] = second compound 0.316 µM, first compound 0.1 µM
[17] = second compound 0.316 µM, first compound 0.316 µM
[18] = second compound 0.316 µM, first compound 1 µM
[19] = second compound 1 µM, first compound 0.0316 µM
[20] = second compound 1 µM, first compound 0.1 µM
[21] = second compound 1 µM, first compound 0.316 µM
[22] = second compound 1 µM, first compound 1 µM
[23] = second compound 3.16 µM, first compound 0.0316 µM
[24] = second compound 3.16 µM, first compound 0.1 µM
[25] = second compound 3.16 µM, first compound 0.316 µM
[26] = second compound 3.16 µM, first compound 1 µM
[27] = second compound 10 µM, first compound 0.0316 µM
[28] = second compound 10 µM, first compound 0.1 µM
[29] = second compound 10 µM, first compound 0.316 µM
[30] = second compound 10 µM, first compound 1 µM
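Also: spheroids exposed to compounds for seven days.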
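For viability, T/C in this document: 100% = DMSO vehicle control wells.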

## Nc1ccccc1NC(=O)c1ccc(CNC(=O)OCc2cccnc2)cc1
Compound 0.0316 µM
  viability, T/C: 83.9% and 90.3%
Compound 0.1 µM
  viability, T/C: 105% and 96.6%
Compound 0.316 µM
  viability, T/C: 94.3% and 91.9%
Compound 1 µM
  viability, T/C: 92.6% and 90.3%
Compound 3.16 µM
  viability, T/C: 88.2% and 84.8%
Compound 10 µM
  viability, T/C: 31.5% and 37%
Curve of compound
  IC50: 6.87 µM and 7.34 µM

## NC(=O)C(=Cn1cnc(-c2cc(C(F)(F)F)cc(C(F)(F)F)c2)n1)c1cncnc1 + CNC(=O)c1ccc(Nc2nc(OC3CCCC3)c3c(-c4ccc5nc(C)oc5c4)c[nH]c3n2)c(OC)c1
[1]
  IC50: > 3 µM
[2]
  IC50: > 3 µM
[3]
  IC50: > 3 µM
[4]
  IC50: > 3 µM
[5]
  IC50: > 3 µM
[6]
  IC50: 2.59 µM
Second compound 0.0316 µM, first compound 0.00949 µM
  viability, T/C: 95%
Second compound 0.0316 µM, first compound 0.03 µM
  viability, T/C: 130%
Second compound 0.0316 µM, first compound 0.0949 µM
  viability, T/C: 179%
Second compound 0.0316 µM, first compound 0.3 µM
  viability, T/C: 195%
Second compound 0.0316 µM, first compound 0.949 µM
  viability, T/C: 176%
Second compound 0.0316 µM, first compound 3 µM
  viability, T/C: 128%
Second compound 0.1 µM, first compound 0.00949 µM
  viability, T/C: 96.4%
Second compound 0.1 µM, first compound 0.03 µM
  viability, T/C: 108%
Second compound 0.1 µM, first compound 0.0949 µM
  viability, T/C: 173%
Second compound 0.1 µM, first compound 0.3 µM
  viability, T/C: 177%
Second compound 0.1 µM, first compound 0.949 µM
  viability, T/C: 171%
Second compound 0.1 µM, first compound 3 µM
  viability, T/C: 97.5%
Second compound 0.316 µM, first compound 0.00949 µM
  viability, T/C: 98.1%
Second compound 0.316 µM, first compound 0.03 µM
  viability, T/C: 116%
Second compound 0.316 µM, first compound 0.0949 µM
  viability, T/C: 160%
Second compound 0.316 µM, first compound 0.3 µM
  viability, T/C: 154%
Second compound 0.316 µM, first compound 0.949 µM
  viability, T/C: 139%
Second compound 0.316 µM, first compound 3 µM
  viability, T/C: 74.3%
Second compound 1 µM, first compound 0.00949 µM
  viability, T/C: 82.2%
Second compound 1 µM, first compound 0.03 µM
  viability, T/C: 114%
Second compound 1 µM, first compound 0.0949 µM
  viability, T/C: 141%
Second compound 1 µM, first compound 0.3 µM
  viability, T/C: 132%
Second compound 1 µM, first compound 0.949 µM
  viability, T/C: 99.4%
Second compound 1 µM, first compound 3 µM
  viability, T/C: 62.5%
Second compound 3.16 µM, first compound 0.00949 µM
  viability, T/C: 80.3%
Second compound 3.16 µM, first compound 0.03 µM
  viability, T/C: 114%
Second compound 3.16 µM, first compound 0.0949 µM
  viability, T/C: 123%
Second compound 3.16 µM, first compound 0.3 µM
  viability, T/C: 113%
Second compound 3.16 µM, first compound 0.949 µM
  viability, T/C: 87.6%
Second compound 3.16 µM, first compound 3 µM
  viability, T/C: 59.3%
Second compound 10 µM, first compound 0.00949 µM
  viability, T/C: 69.4%
Second compound 10 µM, first compound 0.03 µM
  viability, T/C: 98.3%
Second compound 10 µM, first compound 0.0949 µM
  viability, T/C: 124%
Second compound 10 µM, first compound 0.3 µM
  viability, T/C: 98.5%
Second compound 10 µM, first compound 0.949 µM
  viability, T/C: 80.8%
Second compound 10 µM, first compound 3 µM
  viability, T/C: 45.4%

## CN1CCN(c2cc(C(=O)Nc3cc4cc(-c5cnn(C)c5)ccc4cn3)ccn2)CC1
Compound 0.0316 µM
  viability, T/C: 95.6% [middle of 12 runs]
Compound 0.316 µM
  viability, T/C: 83% [middle of 12 runs]
Compound 1 µM
  viability, T/C: 0.9% [middle of 11 runs]
Compound 3.16 µM
  viability, T/C: 1.39% [middle of 12 runs]
Compound 10 µM
  viability, T/C: 1.68% [middle of 11 runs]
Compound alone, run of 08/14/2023
  IC50: 504 nM [middle of 12 runs]

## CCc1c2c(nc3ccc(O)cc13)-c1cc3c(c(=O)n1C2)COC(=O)[C@]3(O)CC + CNC(=O)c1ccc(Nc2nc(OC3CCCC3)c3c(-c4ccc5nc(C)oc5c4)c[nH]c3n2)c(OC)c1
[1]
  IC50: 0.00369 µM
[2]
  IC50: < 0.00316 µM
[3]
  IC50: < 0.00316 µM
[4]
  IC50: < 0.00316 µM
[5]
  IC50: < 0.00316 µM
[6]
  IC50: < 0.00316 µM
Second compound 0.0316 µM, first compound 0.00316 µM
  viability, T/C: 53.6%
Second compound 0.0316 µM, first compound 0.01 µM
  viability, T/C: 27%
[7]
  viability, T/C: 13.1%
[8]
  viability, T/C: 7.46%
[9]
  viability, T/C: 10.5%
[10]
  viability, T/C: 16%
Second compound 0.1 µM, first compound 0.00316 µM
  viability, T/C: 46.3%
Second compound 0.1 µM, first compound 0.01 µM
  viability, T/C: 27%
[11]
  viability, T/C: 12.6%
[12]
  viability, T/C: 7.47%
[13]
  viability, T/C: 8.97%
[14]
  viability, T/C: 17%
Second compound 0.316 µM, first compound 0.00316 µM
  viability, T/C: 41.9%
Second compound 0.316 µM, first compound 0.01 µM
  viability, T/C: 20.4%
[15]
  viability, T/C: 11.7%
[16]
  viability, T/C: 7.63%
[17]
  viability, T/C: 9%
[18]
  viability, T/C: 16.2%
Second compound 1 µM, first compound 0.00316 µM
  viability, T/C: 25.8%
Second compound 1 µM, first compound 0.01 µM
  viability, T/C: 13.5%
[19]
  viability, T/C: 8.98%
[20]
  viability, T/C: 6.66%
[21]
  viability, T/C: 10.7%
[22]
  viability, T/C: 18.1%
Second compound 3.16 µM, first compound 0.00316 µM
  viability, T/C: 20.9%
Second compound 3.16 µM, first compound 0.01 µM
  viability, T/C: 11.3%
[23]
  viability, T/C: 9.77%
[24]
  viability, T/C: 7.07%
[25]
  viability, T/C: 11.5%
[26]
  viability, T/C: 18.9%
Second compound 10 µM, first compound 0.00316 µM
  viability, T/C: 19.4%
Second compound 10 µM, first compound 0.01 µM
  viability, T/C: 13.9%
[27]
  viability, T/C: 7.33%
[28]
  viability, T/C: 7.37%
[29]
  viability, T/C: 15.9%
[30]
  viability, T/C: 20.8%

## CCCS(=O)(=O)Nc1ccc(F)c(C(=O)c2c[nH]c3ncc(-c4ccc(Cl)cc4)cc23)c1F + CN1CCN(c2cc(C(=O)Nc3cc4cc(-c5cnn(C)c5)ccc4cn3)ccn2)CC1
[1]
  IC50: > 10 µM
[2]
  IC50: > 10 µM
[3]
  IC50: > 10 µM
[4]
  IC50: < 0.0316 µM
[5]
  IC50: < 0.0316 µM
[6]
  IC50: < 0.0316 µM
[7]
  viability, T/C: 112%
[8]
  viability, T/C: 98.8%
[9]
  viability, T/C: 98.3%
[10]
  viability, T/C: 111%
Second compound 0.0316 µM, first compound 3.16 µM
  viability, T/C: 93.8%
Second compound 0.0316 µM, first compound 10 µM
  viability, T/C: 111%
[11]
  viability, T/C: 105%
[12]
  viability, T/C: 112%
[13]
  viability, T/C: 103%
[14]
  viability, T/C: 103%
Second compound 0.1 µM, first compound 3.16 µM
  viability, T/C: 96.5%
Second compound 0.1 µM, first compound 10 µM
  viability, T/C: 94.5%
[15]
  viability, T/C: 84.1%
[16]
  viability, T/C: 99.5%
[17]
  viability, T/C: 102%
[18]
  viability, T/C: 96.2%
Second compound 0.316 µM, first compound 3.16 µM
  viability, T/C: 97.9%
Second compound 0.316 µM, first compound 10 µM
  viability, T/C: 64.2%
[19]
  viability, T/C: 0.91%
[20]
  viability, T/C: 2.34%
[21]
  viability, T/C: 4.24%
[22]
  viability, T/C: 1.9%
Second compound 1 µM, first compound 3.16 µM
  viability, T/C: 5.13%
Second compound 1 µM, first compound 10 µM
  viability, T/C: 3.9%
[23]
  viability, T/C: 2.27%
[24]
  viability, T/C: 3.77%
[25]
  viability, T/C: 2.71%
[26]
  viability, T/C: 3.9%
Second compound 3.16 µM, first compound 3.16 µM
  viability, T/C: 3.24%
Second compound 3.16 µM, first compound 10 µM
  viability, T/C: 5.64%
[27]
  viability, T/C: 1.34%
[28]
  viability, T/C: 4.22%
[29]
  viability, T/C: 2.17%
[30]
  viability, T/C: 3.01%
Second compound 10 µM, first compound 3.16 µM
  viability, T/C: 4.86%
Second compound 10 µM, first compound 10 µM
  viability, T/C: 6.03%

## COc1ccc([C@@H](O)c2cc(-c3ncnc4cc(N5CCOCC5)ccc34)c(F)cc2Cl)nn1
Compound 0.0316 µM
  viability, T/C: 97% and 105%
Compound 0.1 µM
  viability, T/C: 94.9% and 95.8%
Compound 0.316 µM
  viability, T/C: 103% and 96.8%
Compound 1 µM
  viability, T/C: 105% and 114%
Compound 3.16 µM
  viability, T/C: 104% and 102%
Compound 10 µM
  viability, T/C: 82.6% and 77.8%
Curve of compound
  IC50: > 10 µM

Reference: PubChem BioAssay AID2060617 (Molecular Pharmacology Branch, DTP, NCI, 2025)
